Target: OROV endonuclease (N-terminal endonuclease domain of OROV RNA-polymerase) (Oropouche virus, UniProt A0A0B5CUJ1)
Assay: fluorescence assay, cleavage of labelled DNA FAM-TCTCTAGCAGTGGCGCC-TAM
Type: biochemical

Work on `COc1cc2[nH]c3c(OC)c(OC)ccc3c(=O)c2c(OC)c1OC` [FAC21, 1,2,3,5,6-Pentamethoxy-9-(10H)-acridinone] yielded an IC50 of 1.4 ± 0.3 µM.

Reference: paper PMC10792649 (Current Research in Microbial Sciences, 2023)
